# What was measured:
# Type in all cases: biochemical
# PLK1 = PLK1 (Homo sapiens, UniProt P53350); assay: PLK TR-FRET peptide assay, PLK1; conditions: GST-PLK1, 60 min reaction
# PLK3 = PLK3 (Homo sapiens, UniProt Q9H4B4); assay: PLK TR-FRET peptide assay, PLK3; conditions: GST-PLK3, 15 min reaction, read-out: Plk3 IC50
# PLK2 = PLK2 (Homo sapiens, UniProt Q9NYY3); assay: PLK TR-FRET peptide assay, PLK2; conditions: for IC50: PLK TR-FRET peptide assay, GST-PLK2, 60 min reaction, read-out: Plk2 IC50; for relative PLK2 activity of the enantiomers: compared with the opposite enantiomer
# Sequence of PLK2 (Q9NYY3 whole entry): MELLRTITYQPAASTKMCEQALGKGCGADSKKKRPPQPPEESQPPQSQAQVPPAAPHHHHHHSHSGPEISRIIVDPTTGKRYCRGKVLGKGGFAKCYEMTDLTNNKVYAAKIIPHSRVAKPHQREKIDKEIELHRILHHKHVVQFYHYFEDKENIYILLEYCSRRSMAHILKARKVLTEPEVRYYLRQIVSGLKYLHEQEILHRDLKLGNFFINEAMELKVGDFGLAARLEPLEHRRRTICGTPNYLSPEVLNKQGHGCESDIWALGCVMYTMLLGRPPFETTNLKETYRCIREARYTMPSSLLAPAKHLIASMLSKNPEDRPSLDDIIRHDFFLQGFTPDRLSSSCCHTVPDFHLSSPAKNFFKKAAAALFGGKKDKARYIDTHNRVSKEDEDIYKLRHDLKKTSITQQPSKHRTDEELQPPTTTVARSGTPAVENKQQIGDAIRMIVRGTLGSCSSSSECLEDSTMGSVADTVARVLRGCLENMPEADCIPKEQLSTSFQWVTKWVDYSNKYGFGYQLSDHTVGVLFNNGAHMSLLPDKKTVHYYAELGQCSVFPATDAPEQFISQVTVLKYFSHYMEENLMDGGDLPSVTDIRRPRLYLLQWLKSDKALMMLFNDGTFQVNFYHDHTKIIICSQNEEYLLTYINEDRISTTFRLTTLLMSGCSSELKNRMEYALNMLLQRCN
# Sequence of PLK1 (P53350 whole entry): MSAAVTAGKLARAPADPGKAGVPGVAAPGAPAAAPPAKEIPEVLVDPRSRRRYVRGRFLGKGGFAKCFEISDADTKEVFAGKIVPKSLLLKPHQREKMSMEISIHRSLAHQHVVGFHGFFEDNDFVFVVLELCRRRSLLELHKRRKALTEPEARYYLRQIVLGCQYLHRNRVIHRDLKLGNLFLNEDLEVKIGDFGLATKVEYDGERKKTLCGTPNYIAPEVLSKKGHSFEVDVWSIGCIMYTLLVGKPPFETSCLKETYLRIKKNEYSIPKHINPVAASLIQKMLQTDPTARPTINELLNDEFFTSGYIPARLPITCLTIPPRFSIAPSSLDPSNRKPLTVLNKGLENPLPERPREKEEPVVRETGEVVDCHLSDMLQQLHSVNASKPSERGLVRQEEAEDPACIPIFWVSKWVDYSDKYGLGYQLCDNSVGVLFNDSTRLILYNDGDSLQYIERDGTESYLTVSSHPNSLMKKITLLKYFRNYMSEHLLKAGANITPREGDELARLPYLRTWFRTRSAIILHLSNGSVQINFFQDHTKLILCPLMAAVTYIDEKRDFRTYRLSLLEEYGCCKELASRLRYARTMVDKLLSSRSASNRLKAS
# Sequence of PLK3 (Q9H4B4 whole entry): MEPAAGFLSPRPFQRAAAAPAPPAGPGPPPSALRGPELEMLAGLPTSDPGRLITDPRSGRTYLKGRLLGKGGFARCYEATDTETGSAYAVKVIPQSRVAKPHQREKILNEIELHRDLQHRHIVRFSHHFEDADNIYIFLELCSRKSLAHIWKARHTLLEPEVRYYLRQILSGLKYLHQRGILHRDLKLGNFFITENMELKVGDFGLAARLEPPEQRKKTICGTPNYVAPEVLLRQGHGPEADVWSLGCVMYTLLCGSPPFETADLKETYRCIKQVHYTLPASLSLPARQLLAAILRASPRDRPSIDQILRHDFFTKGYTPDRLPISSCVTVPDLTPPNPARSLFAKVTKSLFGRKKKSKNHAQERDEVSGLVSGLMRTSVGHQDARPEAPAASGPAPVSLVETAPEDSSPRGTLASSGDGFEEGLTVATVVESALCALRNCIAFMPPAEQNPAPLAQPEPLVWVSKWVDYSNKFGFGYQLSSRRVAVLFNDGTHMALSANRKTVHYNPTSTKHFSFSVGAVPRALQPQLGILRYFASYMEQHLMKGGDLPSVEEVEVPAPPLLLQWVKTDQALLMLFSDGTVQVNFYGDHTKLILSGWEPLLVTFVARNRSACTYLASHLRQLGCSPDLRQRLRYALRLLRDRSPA
compound,measurement,setting,value
"CC[C@@]12CCCN1c1nc(-n3ccnc3-c3cccc(Cl)c3)ncc1N(C)C2=O [Example 236, (S)-2-(2-(3-chlorophenyl)-1H-imidazol-1-yl)-6a-ethyl-5-methyl-6a,7,8,9-tetrahydropyrrolo[2,1-h]pteridin-6(5H)-one]",IC50,PLK1,1 to 10 µM
same,IC50,PLK3,10 to 50 µM
same,IC50,PLK2,< 1 µM
"CC[C@@H]1C(=O)N(C)c2cnc(-n3ccnc3-c3ccc(F)c(F)c3)nc2N1C1CCC(F)(F)C1 (stereo partly drawn) [Example 237, (7R)-8-(3,3-difluorocyclopentyl)-2-(2-(3,4-difluorophenyl)-1H-imidazol-1-yl)-7-ethyl-5-methyl-7,8-dihydropteridin-6(5H)-one]",IC50,PLK1,< 1 µM
same,IC50,PLK3,1 to 10 µM
same,IC50,PLK2,< 1 µM
"CC[C@@]12CCCN1c1nc(-n3ccnc3-c3cnc4ccccc4c3)ncc1N(C)C2=O [Example 241, (S)-6a-ethyl-5-methyl-2-(2-(quinolin-3-yl)-1H-imidazol-1-yl)-6a,7,8,9-tetrahydropyrrolo[2,1-h]pteridin-6(5H)-one]",IC50,PLK1,10 to 50 µM
same,IC50,PLK3,> 50 µM
same,IC50,PLK2,< 1 µM
"CC[C@@H]1C(=O)N(C)c2cnc(-n3ccnc3-c3ccc(F)cn3)nc2N1CCC(F)(F)F [Example 244, (R)-7-ethyl-2-(2-(5-fluoropyridin-2-yl)-1H-imidazol-1-yl)-5-methyl-8-(3,3,3-trifluoropropyl)-7,8-dihydropteridin-6(5H)-one]",IC50,PLK1,10 to 50 µM
same,IC50,PLK3,> 50 µM
same,IC50,PLK2,< 1 µM
"CC[C@@]12CCCCN1c1nc(-n3ccnc3-c3cc(F)cc(F)c3)ncc1N(C)C2=O [Example 249, (S)-2-(2-(3,5-difluorophenyl)-1H-imidazol-1-yl)-6a-ethyl-5-methyl-7,8,9,10-tetrahydro-5H-pyrido[2,1-h]pteridin-6(6aH)-one]",IC50,PLK1,1 to 10 µM
same,IC50,PLK3,> 50 µM
same,IC50,PLK2,< 1 µM
same,relative PLK2 activity of the enantiomers,PLK2,more active compound
"CC[C@]12CCCCN1c1nc(-n3ccnc3-c3cc(F)cc(F)c3)ncc1N(C)C2=O [Example 250, (R)-2-(2-(3,5-difluorophenyl)-1H-imidazol-1-yl)-6a-ethyl-5-methyl-7,8,9,10-tetrahydro-5H-pyrido[2,1-h]pteridin-6(6aH)-one]",IC50,PLK1,> 50 µM
same,IC50,PLK3,> 50 µM
same,IC50,PLK2,> 50 µM
"CC[C@@]12CCCN1c1nc(-n3ccnc3-c3cccc(OC(F)(F)F)c3)ncc1N(C)C2=O [Example 251, (S)-6a-ethyl-5-methyl-2-(2-(3-(trifluoromethoxy)phenyl)-1H-imidazol-1-yl)-6a,7,8,9-tetrahydropyrrolo[2,1-h]pteridin-6(5H)-one]",IC50,PLK1,10 to 50 µM
same,IC50,PLK3,> 50 µM
same,IC50,PLK2,< 1 µM
"CC[C@@H]1C(=O)N(C)c2cnc(-n3ccnc3-c3cccc(F)c3F)nc2N1C1CCOC1 (stereo partly drawn) [Example 253, (7R)-2-(2-(2,3-difluorophenyl)-1H-imidazol-1-yl)-7-ethyl-5-methyl-8-(tetrahydrofuran-3-yl)-7,8-dihydropteridin-6(5H)-one]",IC50,PLK1,< 1 µM
same,IC50,PLK3,1 to 10 µM
same,IC50,PLK2,< 1 µM
"CC[C@@H]1C(=O)N(C)c2cnc(-n3ccnc3-c3cccc(F)c3F)nc2N1CCC(F)(F)F [Example 254, (R)-2-(2-(2,3-difluorophenyl)-1H-imidazol-1-yl)-7-ethyl-5-methyl-8-(3,3,3-trifluoropropyl)-7,8-dihydropteridin-6(5H)-one]",IC50,PLK1,< 1 µM
same,IC50,PLK3,1 to 10 µM
same,IC50,PLK2,< 1 µM
"CC[C@@]12CCC(=O)N1c1nc(-n3ccnc3-c3ccccc3)ncc1N(C)C2=O [Example 258, (S)-6a-ethyl-5-methyl-2-(2-phenyl-1H-imidazol-1-yl)-7,8-dihydropyrrolo[2,1-h]pteridine-6,9(5H,6aH)-dione]",IC50,PLK1,> 50 µM
same,IC50,PLK3,> 50 µM
same,IC50,PLK2,10 to 50 µM
"CC[C@@]12CCCCN1c1nc(-n3ccnc3-c3cccc(F)c3F)ncc1N(C)C2=O [Example 259, (S)-2-(2-(2,3-difluorophenyl)-1H-imidazol-1-yl)-6a-ethyl-5-methyl-7,8,9,10-tetrahydro-5H-pyrido[2,1-h]pteridin-6(6aH)-one]",IC50,PLK1,1 to 10 µM
same,IC50,PLK3,1 to 10 µM
same,IC50,PLK2,< 1 µM
same,relative PLK2 activity of the enantiomers,PLK2,more active compound
"CC[C@@H]1C(=O)N(C)c2cnc(-n3ccnc3-c3ccc(F)cc3F)nc2N1C1CC(F)(F)C1 [Example 260, (R)-8-(3,3-difluorocyclobutyl)-2-(2-(2,4-difluorophenyl)-1H-imidazol-1-yl)-7-ethyl-5-methyl-7,8-dihydropteridin-6(5H)-one]",IC50,PLK1,1 to 10 µM
same,IC50,PLK3,10 to 50 µM
same,IC50,PLK2,< 1 µM
"CC[C@]12CCCCN1c1nc(-n3ccnc3-c3cccc(F)c3F)ncc1N(C)C2=O [Example 261, (R)-2-(2-(2,3-difluorophenyl)-1H-imidazol-1-yl)-6a-ethyl-5-methyl-7,8,9,10-tetrahydro-5H-pyrido[2,1-h]pteridin-6(6aH)-one]",IC50,PLK1,> 50 µM
same,IC50,PLK3,> 50 µM
same,IC50,PLK2,1 to 10 µM
"CC[C@@]12CCCCN1c1nc(-n3ccnc3-c3ccccc3)ncc1N(C)C2=O [Example 262, (S)-6a-ethyl-5-methyl-2-(2-phenyl-1H-imidazol-1-yl)-7,8,9,10-tetrahydro-5H-pyrido[2,1-h]pteridin-6(6aH)-one]",IC50,PLK1,1 to 10 µM
same,IC50,PLK3,1 to 10 µM
same,IC50,PLK2,< 1 µM
same,relative PLK2 activity of the enantiomers,PLK2,more active compound
"CC[C@]12CCCCN1c1nc(-n3ccnc3-c3ccccc3)ncc1N(C)C2=O [Example 263, (R)-6a-ethyl-5-methyl-2-(2-phenyl-1H-imidazol-1-yl)-7,8,9,10-tetrahydro-5H-pyrido[2,1-h]pteridin-6(6aH)-one]",IC50,PLK1,> 50 µM
same,IC50,PLK3,> 50 µM
same,IC50,PLK2,10 to 50 µM
"CC[C@@]12CCCCN1c1nc(-n3ccnc3-c3cccc(F)c3)ncc1N(C)C2=O [Example 264, (S)-6a-ethyl-2-(2-(3-fluorophenyl)-1H-imidazol-1-yl)-5-methyl-7,8,9,10-tetrahydro-5H-pyrido[2,1-h]pteridin-6(6aH)-one]",IC50,PLK1,1 to 10 µM
same,IC50,PLK3,10 to 50 µM
same,IC50,PLK2,< 1 µM
same,relative PLK2 activity of the enantiomers,PLK2,more active compound
"CC[C@]12CCCCN1c1nc(-n3ccnc3-c3cccc(F)c3)ncc1N(C)C2=O [Example 265, (R)-6a-ethyl-2-(2-(3-fluorophenyl)-1H-imidazol-1-yl)-5-methyl-7,8,9,10-tetrahydro-5H-pyrido[2,1-h]pteridin-6(6aH)-one]",IC50,PLK1,> 50 µM
same,IC50,PLK3,> 50 µM
same,IC50,PLK2,10 to 50 µM
"CC[C@@]12CCCCN1c1nc(-n3ccnc3-c3cc(F)c(F)c(F)c3)ncc1N(C)C2=O [Example 266, (S)-6a-ethyl-5-methyl-2-(2-(3,4,5-trifluorophenyl)-1H-imidazol-1-yl)-7,8,9,10-tetrahydro-5H-pyrido[2,1-h]pteridin-6(6aH)-one]",IC50,PLK1,> 50 µM
same,IC50,PLK3,> 50 µM
same,IC50,PLK2,< 1 µM
same,relative PLK2 activity of the enantiomers,PLK2,more active compound
"CC[C@]12CCCCN1c1nc(-n3ccnc3-c3cc(F)c(F)c(F)c3)ncc1N(C)C2=O [Example 267, (R)-6a-ethyl-5-methyl-2-(2-(3,4,5-trifluorophenyl)-1H-imidazol-1-yl)-7,8,9,10-tetrahydro-5H-pyrido[2,1-h]pteridin-6(6aH)-one]",IC50,PLK1,> 50 µM
same,IC50,PLK3,> 50 µM
same,IC50,PLK2,> 50 µM

# Source: US8541418B2, “Inhibitors of polo-like kinase” (Elan Pharmaceutical, Inc., priority 2009, dated 2013)
